Several values for one entry are separate records, joined by “and”; a condition that tells them apart may be missing. Equal entries are not always repeated. Activity calls are given as the source filed them. How the source made its calls: active means viability on the fitted dose curve at most 10% of control; inactive means the rest.
System: 276233-004-R-J1-PDC KRAS spheroids with HUVEC/MSC, viability
Experiment: Anticancer human tumor 276233-004-R-J1-PDC patient-derived colon adenocarcinoma cell line growth inhibition [KRAS2]
Settings: for viability, T/C: stronger effect = lower value
Procedure, shortened: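 Combination screen of spheroid viability in tumor-cell co-cultures with endothelial (HUVEC) and mesenchymal stem cell stroma. Each agent was tested in half-log dilutions, topping at clinical Cmax or at 10 microM without a known Cmax.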

[1] = curve of first compound, second compound 0.1 µM
[2] = curve of first compound, second compound 0.316 µM
[3] = curve of first compound, second compound 1 µM
[4] = curve of first compound, second compound 3.16 µM
[5] = curve of first compound, second compound 10 µM
[6] = second compound 0.1 µM, first compound 0.000316 µM
[7] = second compound 0.1 µM, first compound 0.001 µM
[8] = second compound 0.1 µM, first compound 0.00316 µM
[9] = second compound 0.1 µM, first compound 0.01 µM
[10] = second compound 0.1 µM, first compound 0.0316 µM
[11] = second compound 0.1 µM, first compound 0.1 µM
[12] = second compound 0.316 µM, first compound 0.000316 µM
[13] = second compound 0.316 µM, first compound 0.001 µM
[14] = second compound 0.316 µM, first compound 0.00316 µM
[15] = second compound 0.316 µM, first compound 0.01 µM
[16] = second compound 0.316 µM, first compound 0.0316 µM
[17] = second compound 0.316 µM, first compound 0.1 µM
[18] = second compound 1 µM, first compound 0.000316 µM
[19] = second compound 1 µM, first compound 0.001 µM
[20] = second compound 1 µM, first compound 0.00316 µM
[21] = second compound 1 µM, first compound 0.01 µM
[22] = second compound 1 µM, first compound 0.0316 µM
[23] = second compound 1 µM, first compound 0.1 µM
[24] = second compound 3.16 µM, first compound 0.000316 µM
[25] = second compound 3.16 µM, first compound 0.001 µM
[26] = second compound 3.16 µM, first compound 0.00316 µM
[27] = second compound 3.16 µM, first compound 0.01 µM
[28] = second compound 3.16 µM, first compound 0.0316 µM
[29] = second compound 3.16 µM, first compound 0.1 µM
[30] = second compound 10 µM, first compound 0.000316 µM
[31] = second compound 10 µM, first compound 0.001 µM
[32] = second compound 10 µM, first compound 0.00316 µM
[33] = second compound 10 µM, first compound 0.01 µM
[34] = second compound 10 µM, first compound 0.0316 µM
[35] = second compound 10 µM, first compound 0.1 µM
[36] = second compound 0.1 µM, first compound 0.316 µM
[37] = second compound 0.1 µM, first compound 1 µM
[38] = second compound 0.1 µM, first compound 3.16 µM
[39] = second compound 0.1 µM, first compound 10 µM
[40] = second compound 0.316 µM, first compound 0.316 µM
[41] = second compound 0.316 µM, first compound 1 µM
[42] = second compound 0.316 µM, first compound 3.16 µM
[43] = second compound 0.316 µM, first compound 10 µM
[44] = second compound 1 µM, first compound 0.316 µM
[45] = second compound 1 µM, first compound 1 µM
[46] = second compound 1 µM, first compound 3.16 µM
[47] = second compound 1 µM, first compound 10 µM
[48] = second compound 3.16 µM, first compound 0.316 µM
[49] = second compound 3.16 µM, first compound 1 µM
[50] = second compound 3.16 µM, first compound 3.16 µM
[51] = second compound 3.16 µM, first compound 10 µM
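Wherever IC50 is given: cells exposed to agents for seven days before viability read.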
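Wherever viability, T/C is given: cells exposed to agents for seven days before viability read; 100% = DMSO vehicle control wells and lower values mean fewer viable cells.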

For `CN(C)C/C=C/C(=O)Nc1cc2c(Nc3ccc(F)c(Cl)c3)ncnc2cc1O[C@H]1CCOC1` + CC1OCC2(CCN(c3cnc(Sc4ccnc(N)c4Cl)c(N)n3)CC2)C1N, the IC50 [1] was greater than 100 nM, the IC50 [2] was greater than 100 nM and the IC50 [3] was greater than 100 nM. It also gave an IC50 [4] of 83.3 nM, an IC50 [5] greater than 100 nM and a viability, T/C [6] of 95.9%. For the same molecule, the viability, T/C [7] was 96.1%, the viability, T/C [8] was 92.4% and the viability, T/C [9] was 71.3%. The viability, T/C [10] was 80.1%, the viability, T/C [11] was 81.6% and the viability, T/C [12] was 80.7%. For the same molecule, the viability, T/C [13] was 76.6%, the viability, T/C [14] was 94.3% and the viability, T/C [15] was 81.1%. For the same molecule, the viability, T/C [16] was 75.5%, the viability, T/C [17] was 78.1% and the viability, T/C [18] was 93.2%. It also gave a viability, T/C [19] of 95.5%, a viability, T/C [20] of 104% and a viability, T/C [21] of 97.9%. The viability, T/C [22] was 104%, the viability, T/C [23] was 79.5% and the viability, T/C [24] was 56.4%. It also gave a viability, T/C [25] of 53%, a viability, T/C [26] of 48.7% and a viability, T/C [27] of 51.1%. The viability, T/C [28] was 54.5%, the viability, T/C [29] was 48.8% and the outcome [30] was “inactive”. For the same molecule, the outcome [31] was “inactive”, the viability, T/C [32] was 52.6% and the outcome [33] was “inactive”. It also gave a viability, T/C [34] of 50.9% and a viability, T/C [35] of 55.4%.

Molecule `CN(C)C/C=C/C(=O)Nc1cc2c(Nc3ccc(F)c(Cl)c3)ncnc2cc1O[C@H]1CCOC1` + COc1cc2nc(C)nc(NC(C)c3cc(N)cc(C(F)(F)F)c3)c2cc1OC1CCOC1 has an IC50 [1] greater than 100 nM, an IC50 [2] greater than 100 nM and an IC50 [3] greater than 100 nM. The IC50 [4] was greater than 100 nM, the IC50 [5] was greater than 100 nM and the viability, T/C [6] was 99.4%. For the same molecule, the viability, T/C [7] was 95.6%, the viability, T/C [8] was 77.4% and the viability, T/C [9] was 86.9%. The viability, T/C [10] was 79.8%, the viability, T/C [11] was 80.2% and the viability, T/C [12] was 80%. It also gave a viability, T/C [13] of 82.9%, a viability, T/C [14] of 71.7% and a viability, T/C [15] of 61.1%. For the same molecule, the viability, T/C [16] was 68.5%, the viability, T/C [17] was 74% and the viability, T/C [18] was 86.1%. The viability, T/C [19] was 107%, the viability, T/C [20] was 87.9% and the viability, T/C [21] was 83.8%. The viability, T/C [22] was 71.4%, the viability, T/C [23] was 67.5% and the viability, T/C [24] was 64.4%. The viability, T/C [25] was 66.9%, the viability, T/C [26] was 74.7% and the viability, T/C [27] was 63%. For the same molecule, the viability, T/C [28] was 56%, the viability, T/C [29] was 66.3% and the viability, T/C [30] was 65%. For the same molecule, the viability, T/C [31] was 69%, the viability, T/C [32] was 67.4% and the viability, T/C [33] was 65.5%. For the same molecule, the viability, T/C [34] was 63.6% and the viability, T/C [35] was 63.4%.

In the case of `CC1OCC2(CCN(c3cnc(Sc4ccnc(N)c4Cl)c(N)n3)CC2)C1N` (stereo not drawn) + CNCc1ccccc1-c1csc(C(C)Nc2nc(C)nc3cc(OC)c(OC)cc23)c1, the IC50 [1] is reported as greater than 10000 nM, the IC50 [2] is reported as greater than 10000 nM and the IC50 [3] is reported as 392 nM. The IC50 [4] was less than 31.6 nM, the IC50 [5] was less than 31.6 nM and the viability, T/C [10] was 73.8%. The viability, T/C [11] was 101%, the viability, T/C [36] was 66.1% and the viability, T/C [37] was 82%. It also gave a viability, T/C [38] of 73.3%, a viability, T/C [39] of 59% and a viability, T/C [16] of 92.8%. It also gave a viability, T/C [17] of 90.2%, a viability, T/C [40] of 68.6% and a viability, T/C [41] of 60.9%. For the same molecule, the viability, T/C [42] was 66%, the viability, T/C [43] was 46.5% and the viability, T/C [22] was 88.9%. It also gave a viability, T/C [23] of 84.1%, a viability, T/C [44] of 50.8% and a viability, T/C [45] of 50%. It also gave a viability, T/C [46] of 50.3%, a viability, T/C [47] of 34.5% and a viability, T/C [28] of 0.87%. It also gave a viability, T/C [29] of 0.85%, a viability, T/C [48] of 1.57% and a viability, T/C [49] of 2.11%. It also gave a viability, T/C [50] of 0.56%, a viability, T/C [51] of 3.18% and a viability, T/C [34] of 1.45%. The viability, T/C [35] was 3.57%, the viability, T/C (second compound 10 µM, first compound 0.316 µM) was 0.22% and the viability, T/C (second compound 10 µM, first compound 1 µM) was 0.25%. It also gave a viability, T/C (second compound 10 µM, first compound 3.16 µM) of 0.32% and a viability, T/C (second compound 10 µM, first compound 10 µM) of 5.87%.

For `C=CC(=O)N1CCN(c2nc(OCC3CCCN3C)nc3c2CCN(c2cccc4cccc(C)c24)C3)CC1CC#N` (stereo not drawn), the IC50 (compound alone, run of 07/12/2021) was > 3160 nM and 2820 nM, the IC50 (compound alone, run of 07/19/2021) was > 3160 nM and 2570 nM and 2490 nM and the IC50 (compound alone, run of 07/26/2021) was greater than 3160 nM.

`COc1cc(Nc2ncc3c(n2)-c2ccc(Cl)cc2C(c2c(F)cccc2OC)=NC3)ccc1C(=O)O` + C=CC(=O)N1CCN(c2nc(OCC3CCCN3C)nc3c2CCN(c2cccc4cccc(C)c24)C3)CC1CC#N was tested, and the IC50 (curve of first compound, second compound 0.0316 µM) was greater than 10000 nM, the IC50 [1] was greater than 10000 nM and the IC50 [2] was greater than 10000 nM. For the same molecule, the IC50 [3] was greater than 10000 nM, the IC50 [4] was 2120 nM and the viability, T/C (second compound 0.0316 µM, first compound 0.0316 µM) was 98.9%. It also gave a viability, T/C (second compound 0.0316 µM, first compound 0.1 µM) of 85.5%, a viability, T/C (second compound 0.0316 µM, first compound 0.316 µM) of 89.2% and a viability, T/C (second compound 0.0316 µM, first compound 1 µM) of 86.2%. For the same molecule, the viability, T/C (second compound 0.0316 µM, first compound 3.16 µM) was 77.9%, the viability, T/C (second compound 0.0316 µM, first compound 10 µM) was 77% and the viability, T/C [10] was 85.9%. For the same molecule, the viability, T/C [11] was 91.1%, the viability, T/C [36] was 82.2% and the viability, T/C [37] was 73.6%. The viability, T/C [38] was 83.3%, the viability, T/C [39] was 81% and the viability, T/C [16] was 94.5%. For the same molecule, the viability, T/C [17] was 79%, the viability, T/C [40] was 70.9% and the viability, T/C [41] was 67.8%. For the same molecule, the viability, T/C [42] was 83.1%, the viability, T/C [43] was 63.9% and the viability, T/C [22] was 79.8%. The viability, T/C [23] was 81.3%, the viability, T/C [44] was 94.9% and the viability, T/C [45] was 96.9%. For the same molecule, the viability, T/C [46] was 67.2%, the viability, T/C [47] was 70.5% and the viability, T/C [28] was 45.9%. It also gave a viability, T/C [29] of 64%, a viability, T/C [48] of 55.7% and a viability, T/C [49] of 54.1%. It also gave a viability, T/C [50] of 47.4% and a viability, T/C [51] of 26.9%.

`CN(C)C/C=C/C(=O)Nc1cc2c(Nc3ccc(F)c(Cl)c3)ncnc2cc1O[C@H]1CCOC1` + C=CC(=O)N1CCN(c2nc(=O)n(-c3c(C)ccnc3C(C)C)c3nc(-c4c(O)cccc4F)c(F)cc23)C(C)C1 was tested, and the IC50 [1] was greater than 100 nM, the IC50 [2] was greater than 100 nM and the IC50 [3] was greater than 100 nM. It also gave an IC50 [4] greater than 100 nM, an IC50 [5] greater than 100 nM and a viability, T/C [6] of 93.5%. The viability, T/C [7] was 97.1%, the viability, T/C [8] was 72% and the viability, T/C [9] was 87.6%. For the same molecule, the viability, T/C [10] was 75.8%, the viability, T/C [11] was 85.3% and the viability, T/C [12] was 109%. It also gave a viability, T/C [13] of 80.8%, a viability, T/C [14] of 83% and a viability, T/C [15] of 67.6%. It also gave a viability, T/C [16] of 88%, a viability, T/C [17] of 87% and a viability, T/C [18] of 103%. The viability, T/C [19] was 101%, the viability, T/C [20] was 80.8% and the viability, T/C [21] was 82.6%. It also gave a viability, T/C [22] of 84.6%, a viability, T/C [23] of 95.6% and a viability, T/C [24] of 87.1%. It also gave a viability, T/C [25] of 77.8%, a viability, T/C [26] of 85.9% and a viability, T/C [27] of 69.9%. The viability, T/C [28] was 78.6%, the viability, T/C [29] was 69.7% and the viability, T/C [30] was 66%. The viability, T/C [31] was 65.8%, the viability, T/C [32] was 57.8% and the viability, T/C [33] was 66.8%. For the same molecule, the viability, T/C [34] was 69.1% and the viability, T/C [35] was 84.9%.

From PubChem BioAssay AID1963873 (Molecular Pharmacology Branch, DTP, NCI, 2024)
